According to article PMC12320831, “Synthesis and Biological Evaluation of New Chalcogen Semicarbazone (S, Se) and Their Azole Derivatives against Chagas Disease” (Journal of Medicinal Chemistry, 2024):
Where a name gives a salt, the structure may show the parent alone. Read-outs that look alike come from different tables or passages of the source.

Experiments:
recombinant Cz (cruzain) = target: T1, recombinant Cz (cruzain) (Trypanosoma cruzi, UniProt P25779); assay: biochemical; conditions: read-out: Cz inhibition (%), 10 µM
T1 construct: Cz was expressed and purified as described in da Silva et al; made in house
T1 sequence (P25779 123-337 limits assumed): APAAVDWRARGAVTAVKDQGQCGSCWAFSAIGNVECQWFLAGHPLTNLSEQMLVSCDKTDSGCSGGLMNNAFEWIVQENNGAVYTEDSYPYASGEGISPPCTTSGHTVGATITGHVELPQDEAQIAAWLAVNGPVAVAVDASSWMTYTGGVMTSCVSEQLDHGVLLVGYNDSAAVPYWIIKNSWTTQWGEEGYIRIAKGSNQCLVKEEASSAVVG
Protocol: The screening assay was performed using 1 nM of Cz diluted in 0.1 M sodium acetate pH 5.5, 1 mM dithiothreitol (DTT), and 0.01% Triton X-100. Cz was expressed and purified as described in da Silva et al. The reaction starts after 10 min incubating the enzyme with the compounds (10 μM), when adding 2.5 μM of the substrate Z-FR-AMC final concentration (Z-Phe-Arg-amidomethylcoumarin, Sigma-Aldrich, C9521) diluted in the same assay buffer (final volume of 30 μL). The experiment was performed for 10 min. […] The DRC was performed with at least nine different concentrations of the inhibitors, diluted by 2-fold serial dilution, ranging from […] to 10 μM.
All experiments were accomplished in a 384-well black microplate, using a Synergy HTX (Biotek) plate reader at 25 °C with absorption/emission wavelengths of 360/460 nm. All assays were performed in triplicate wells and DMSO was used as a vehicle control. Enzymatic activity was measured and normalized to DMSO controls, and the inhibitor E-64 (10 μM) was used as a positive control for all assays. All experiments were performed in triplicates, with at least two independent assays (n = 6 data points). IC50 values were determined through nonlinear regression. Obtained data were treated and analyzed using GraphPad Prism 9.0 (GraphPad Software, La Jolla, California).

[1] = Host cell cytotoxicity (C2C12 viability); assay type: cell-based, Mouse; conditions: mouse; for viability at 48 h, 10 µM: < 50% viability considered cytotoxic
Protocol: Antiparasitic activity and cytotoxicity of compounds were determined as described before (da Silva et al., Boudreau et al.). Mouse myoblasts cell line C2C12 (ATCCCRL-1772), were maintained in high glucose (4.5 g/L glucose) Dulbecco’s modified Eagle’s medium (DMEM Gibco), supplemented with 1% penicillin–streptomycin 10,000 U/mL (Gibco) and 5% fetal bovine serum (FBS, Sigma-Aldrich) at 37 °C with 5% CO2. parasites (CAI/72 strain, DTU TcI) were maintained by weekly coinfection with C2C12 cells. For all activity assays, C2C12 cells were infected at a 10:1 parasite-to-cell ratio with culture-derived trypomastigotes, which were harvested from the supernatant of infected C2C12 cells. After adding compounds to 384-well black clear-bottom plates (Greiner cat. no. 781091), trypomastigotes (7000 parasites/well) and C2C12 cells (700 cells/well) were seeded in a total volume of 50 μL of DMEM per well in the 384-well plates. Compounds were first tested at 10 μM. […] After 48 h at 37 °C and 5% CO2, plates were fixed with 4% formaldehyde solution for at least 1 h, washed with 1× PBS, and stained with 5 μg/mL of 4′,6-diamidino-2-phenylindole (DAPI) for at least 1 h prior to reading. Plates were imaged with the automated ImageXpress MicroXL microscope (Molecular Devices) and analyzed by MetaXpress software (Molecular Devices) using a custom module optimized for this assay. Infection levels (parasites per host cell) were normalized to the positive control (40 μM BNZ) and negative control (DMSO). Antiparasitic activity (EC50) ± standard deviation (SD) and host cell cytotoxicity (C2C12 viability) values were determined from the DRC using Prism software (GraphPad Software, La Jolla, CA). Every assay has three biological replicates, each in triplicates (n = 9 data points).

T. cruzi CAI/72 strain = assay: Antiparasitic activity in C2C12 cells infected with T. cruzi CAI/72 (image-based assay); assay type: cell-based; conditions: Trypanosoma cruzi
Protocol: Antiparasitic activity and cytotoxicity of compounds were determined as described before (da Silva et al., Boudreau et al.). Mouse myoblasts cell line C2C12 (ATCCCRL-1772), were maintained in high glucose (4.5 g/L glucose) Dulbecco’s modified Eagle’s medium (DMEM Gibco), supplemented with 1% penicillin–streptomycin 10,000 U/mL (Gibco) and 5% fetal bovine serum (FBS, Sigma-Aldrich) at 37 °C with 5% CO2. parasites (CAI/72 strain, DTU TcI) were maintained by weekly coinfection with C2C12 cells. For all activity assays, C2C12 cells were infected at a 10:1 parasite-to-cell ratio with culture-derived trypomastigotes, which were harvested from the supernatant of infected C2C12 cells. After adding compounds to 384-well black clear-bottom plates (Greiner cat. no. 781091), trypomastigotes (7000 parasites/well) and C2C12 cells (700 cells/well) were seeded in a total volume of 50 μL of DMEM per well in the 384-well plates. Compounds were first tested at 10 μM. […] Plates were imaged with the automated ImageXpress MicroXL microscope (Molecular Devices) and analyzed by MetaXpress software (Molecular Devices) using a custom module optimized for this assay. Infection levels (parasites per host cell) were normalized to the positive control (40 μM BNZ) and negative control (DMSO). Antiparasitic activity (EC50) ± standard deviation (SD) and host cell cytotoxicity (C2C12 viability) values were determined from the DRC using Prism software (GraphPad Software, La Jolla, CA). Every assay has three biological replicates, each in triplicates (n = 9 data points).

[2] = C2C12 myoblast cells infected with trypomastigotes
[3] = 10 µM, C2C12 infected cells, read-out: Anti-Tc CAI/72 activity (%)
[4] = C2C12, read-out: Anti-Tc CAI/72 activity (%)

SMILES: C/C(=N\Nc1nc(C)cs1)c1ccc(Br)cc1 [Compound S2f, (E)-2-(2-(1-(4-Bromophenyl)ethylidene)hydrazineyl)-4-methylthiazole hydrochloride]
- inhibition at 10 µM (recombinant Cz (cruzain)): 53%
- viability at 48 h, 10 µM [1, 2]: > 100%
- inhibition at 10 µM (T. cruzi CAI/72 strain; [3]): 1.1%

SMILES: COc1cccc(/C(C)=N/Nc2nc(C)cs2)c1 [Compound S2g, (E)-2-(2-(1-(3-Methoxyphenyl)ethylidene)hydrazineyl)-4-methylthiazole hydrochloride]
- inhibition at 10 µM (recombinant Cz (cruzain)): 45.1%
- viability at 48 h, 10 µM [1, 2]: > 100%
- inhibition at 10 µM (T. cruzi CAI/72 strain; [3]): 40.6%

SMILES: C/C(=N\Nc1nc(C)cs1)c1ccc(F)c(F)c1 [Compound S2j, (E)-2-(2-(1-(3,4-Difluorophenyl)ethylidene)hydrazineyl)-4-methylthiazole Hydrochloride]
- inhibition at 10 µM (recombinant Cz (cruzain)): 79.4%
- viability at 48 h, 10 µM [1, 2]: > 100%
- inhibition at 10 µM (T. cruzi CAI/72 strain; [3]): 28.3%

SMILES: COc1ccc(/C(C)=N/Nc2nc(C)cs2)c(OC)c1 [Compound S2k, (E)-2-(2-(1-(2,4-Dimethoxyphenyl)ethylidene)hydrazineyl)-4-methylthiazole Hydrochloride]
- inhibition at 10 µM (recombinant Cz (cruzain)): 34.2%
- viability at 48 h, 10 µM [1, 2]: > 100%
- inhibition at 10 µM (T. cruzi CAI/72 strain; [3]): 46%

SMILES: C/C(=N\Nc1nc(C)cs1)c1ccsc1 [Compound S2l, (E)-4-Methyl-2-(2-(1-(thiophen-3-yl)ethylidene)hydrazineyl)thiazole Hydrochloride]
- inhibition at 10 µM (recombinant Cz (cruzain)): 31.6%
- viability at 48 h, 10 µM [1, 2]: > 100%
- inhibition at 10 µM (T. cruzi CAI/72 strain; [3]): 19.5%

SMILES: C/C(=N\Nc1nc(C)cs1)c1csc2ccccc12 [Compound S2o, (E)-2-(2-(1-(Benzo[b]thiophen-3-yl)ethylidene)hydrazineyl)-4-methylthiazole Hydrochloride]
- inhibition at 10 µM (recombinant Cz (cruzain)): 27.9%
- viability at 48 h, 10 µM [1, 2]: > 100%
- inhibition at 10 µM (T. cruzi CAI/72 strain; [3]): 45.7%

SMILES: C/C(=N\Nc1nc(C)cs1)c1cc2ccccc2o1 [Compound S2p, (E)-2-(2-(1-(Benzofuran-2-yl)ethylidene)hydrazineyl)-4-methylthiazole Hydrochloride]
- inhibition at 10 µM (recombinant Cz (cruzain)): 74.3%
- viability at 48 h, 10 µM [1, 2]: > 100%
- inhibition at 10 µM (T. cruzi CAI/72 strain; [3]): 31.4%

SMILES: C/C(=N\Nc1nc(C)cs1)C12CC3CC(CC(C3)C1)C2 [Compound S2q, 2-(2-((E)-1-((3s)-Adamantan-1-yl)ethylidene)hydrazineyl)-4-methylthiazole Hydrochloride]
- inhibition at 10 µM (recombinant Cz (cruzain)): 30.5%
- viability at 48 h, 10 µM [1, 2]: > 100%
- inhibition at 10 µM (T. cruzi CAI/72 strain; [3]): 40.5%

SMILES: C/C(=N\NC(N)=[Se])c1ccc(C)cc1 [Se1a, (E)-2-(1-(4-Tolyl)ethylidene)hydrazine-1-carboselenoamide]
- inhibition at 10 µM (recombinant Cz (cruzain)): 98.2%
- viability at 48 h, 10 µM [1]: 34.1%
- inhibition at 10 µM (T. cruzi CAI/72 strain; [3]): 21.6%

SMILES: COc1ccc(/C(C)=N/NC(N)=[Se])cc1 [Se1b, (E)-2-(1-(4-Methoxyphenyl)ethylidene)hydrazine-1-carboselenoamide]
- inhibition at 10 µM (recombinant Cz (cruzain)): 98.9%
- viability at 48 h, 10 µM [1]: 40.9%
- inhibition at 10 µM (T. cruzi CAI/72 strain; [4]): 30%

SMILES: COc1cccc(/C(C)=N/NC(N)=[Se])c1 [Se1g, (E)-2-(1-(3-Methoxyphenyl)ethylidene)hydrazine-1-carboselenoamide]
- inhibition at 10 µM (recombinant Cz (cruzain)): 101%
- viability at 48 h, 10 µM [1]: 31.1%
- inhibition at 10 µM (T. cruzi CAI/72 strain; [4]): 7.03%

SMILES: C/C(=N\NC(N)=[Se])c1ccsc1 [Se1l, (E)-2-(1-(Thiophen-3-yl)ethylidene)hydrazine-1-carboselenoamide]
- inhibition at 10 µM (recombinant Cz (cruzain)): 90.1%
- viability at 48 h, 10 µM [1]: 38.1%
- inhibition at 10 µM (T. cruzi CAI/72 strain; [4]): 30.5%

SMILES: C/C(=N\NC(N)=[Se])c1csc2ccccc12 [Se1o, (E)-2-(1-(Benzo[b]thiophen-3-yl)ethylidene)hydrazine-1-carboselenoamide]
- inhibition at 10 µM (recombinant Cz (cruzain)): 93.7%
- viability at 48 h, 10 µM [1]: 31.4%
- inhibition at 10 µM (T. cruzi CAI/72 strain; [4]): 4.32%

SMILES: C/C(=N\NC(N)=[Se])c1cc2ccccc2o1 [Se1p, (E)-2-(1-(Benzofuran-2-yl)ethylidene)hydrazine-1-carboselenoamide]
- inhibition at 10 µM (recombinant Cz (cruzain)): 102%
- viability at 48 h, 10 µM [1]: 39.4%
- inhibition at 10 µM (T. cruzi CAI/72 strain; [4]): 28.8%

SMILES: C/C(=N\NC(N)=[Se])C12CC3CC(CC(C3)C1)C2 [Se1q, (E)-2-(1-((3r,5r,7r)-Adamantan-1-yl)ethylidene)hydrazine-1-carboselenoamide]
- inhibition at 10 µM (recombinant Cz (cruzain)): 83.8%
- viability at 48 h, 10 µM [1]: 78.6%
- inhibition at 10 µM (T. cruzi CAI/72 strain; [4]): 16.2%

SMILES: C/C(=N\Nc1nc(C)c[se]1)c1ccc(C)cc1 [Se2a, (E)-4-Methyl-2-(2-(1-(4-tolyl)ethylidene)hydrazineyl)-1,3-selenazole Hydrochloride]
- inhibition at 10 µM (recombinant Cz (cruzain)): 28.6%
- viability at 48 h, 10 µM [1]: 91.9%
- inhibition at 10 µM (T. cruzi CAI/72 strain; [4]): 11.1%

SMILES: COc1ccc(/C(C)=N/Nc2nc(C)c[se]2)cc1 [Se2b, (E)-2-(2-(1-(4-Methoxyphenyl)ethylidene)hydrazineyl)-4-methyl-1,3-selenazole Hydrochloride]
- inhibition at 10 µM (recombinant Cz (cruzain)): 21.6%
- viability at 48 h, 10 µM [1]: 94%
- inhibition at 10 µM (T. cruzi CAI/72 strain; [4]): 12.1%

SMILES: C/C(=N\Nc1nc(C)c[se]1)c1ccc(C(F)(F)F)cc1 [Se2d, (E)-4-Methyl-2-(2-(1-(4-(trifluoromethyl)phenyl)ethylidene)hydrazineyl)-1,3-selenazole Hydrochloride]
- inhibition at 10 µM (recombinant Cz (cruzain)): 95.2%
- viability at 48 h, 10 µM [1]: 96.1%
- inhibition at 10 µM (T. cruzi CAI/72 strain; [4]): 27.9%

SMILES: C/C(=N\Nc1nc(C)c[se]1)c1ccc(Br)cc1 [Se2f, (E)-2-(2-(1-(4-Bromophenyl)ethylidene)hydrazineyl)-4-methyl-1,3-selenazole Hydrochloride]
- inhibition at 10 µM (recombinant Cz (cruzain)): 98.6%
- viability at 48 h, 10 µM [1]: 87.7%
- inhibition at 10 µM (T. cruzi CAI/72 strain; [4]): 18.3%

SMILES: COc1cccc(/C(C)=N/Nc2nc(C)c[se]2)c1 [Se2g, (E)-2-(2-(1-(3-Methoxyphenyl)ethylidene)hydrazineyl)-4-methyl-1,3-selenazole Hydrochloride]
- inhibition at 10 µM (recombinant Cz (cruzain)): 62.9%
- viability at 48 h, 10 µM [1]: > 100%
- CC50 at 48 h ([1]; viability calculated at 10 μM): > 10000 nM
- EC50 (T. cruzi CAI/72 strain; C2C12, 48 h, read-out: EC50 Tc CAI/72, intracellular amastigotes in C2C12 cells, 48 h, mean of three experiments in triplicate (n = 9) ± SD): 2670 ± 1130 nM
- inhibition at 10 µM (T. cruzi CAI/72 strain; [4]): 55.1%

SMILES: C/C(=N\Nc1nc(C)c[se]1)c1ccc(F)c(F)c1 [Se2j, (E)-2-(2-(1-(3,4-Difluorophenyl)ethylidene)hydrazineyl)-4-methyl-1,3-selenazole Hydrochloride]
- inhibition at 10 µM (recombinant Cz (cruzain)): 102%
- viability at 48 h, 10 µM [1]: 38.3%
- inhibition at 10 µM (T. cruzi CAI/72 strain; [4]): 18.7%

SMILES: C/C(=N\Nc1nc(C)c[se]1)c1csc2ccccc12 [Se2o, (E)-2-(2-(1-(Benzo[b]thiophen-3-yl)ethylidene)hydrazineyl)-4-methyl-1,3-selenazole Hydrochloride]
- inhibition at 10 µM (recombinant Cz (cruzain)): 101%
- viability at 48 h, 10 µM [1]: > 100%
- inhibition at 10 µM (T. cruzi CAI/72 strain; [4]): 42.3%

SMILES: C/C(=N\Nc1nc(C)c[se]1)c1cc2ccccc2o1 [Se2p, (E)-2-(2-(1-(Benzofuran-2-yl)ethylidene)hydrazineyl)-4-methyl-1,3-selenazole Hydrochloride]
- inhibition at 10 µM (recombinant Cz (cruzain)): 98.5%
- viability at 48 h, 10 µM [1]: > 100%
- inhibition at 10 µM (T. cruzi CAI/72 strain; [4]): 26.6%
